Experimental data from patent US20080183070A1, “Multi-mode medical device system with thermal ablation capability and methods of using same” (Wisconsin Alumni Research Foundation, priority 2007, published 2008).

How the values were obtained:
[1] = MR visibility test of the functional gelatin coating on PE rod in saline and yogurt (Example 14); settings: after soaking in water for 12 hours
Description: Samples having the above formulations were transferred to a glass tube and kept in a water bath at 35° C. A bare PE rod (5 cm in length) was then dipped into the solution, and then removed. The rod was then cooled to room temperature to allow chill-setting of the gelatin solution and to form the coating on the rod surface. The same procedure was repeated to overcoat additional layers of gel. The final dry thickness of gel-coating was about 60 μm.
The gelatin coatings were dried in air while being chemically cross-linked by BVSM. The dried and cross-linked samples were then soaked in distilled water for 12 hours. Soaking each sample in distilled water may remove the DTPA[Gd(III)] that was not physically or chemically constrained by the cross-linked network of gelatin overcoat. Because the DTPA[Gd(III)] complexes were not chemically linked to the gelatin chains, most of them would be expected to diffuse out of the coating when soaked in water, whereas some of DTPA[Gd(III)] may be confined by the crystal domains in gelatin or by hydrogen bonding between gelatin chains and DTPA. In any event, after the soaking, the gelatin coating was dried again in air before MRI test.
The MR visibility of the samples prepared as outlined above, was tested in two media: saline and yogurt. […]

[2] = Diffusion of a fluorescent probe in swollen gelatin gel by FRAP; format: physicochemical
Description: To assess the stability of DTPA[Gd(III)] in the gelatin coating, the diffusion of a fluorescence probe in gelatin was studied by the technique of fluorescence recovery after photobleaching (FRAP). The instrument and data analysis scheme are described in Kim, S. H. and Yu, H., J. Phys. Chem. 1992, 96, 4034, which is hereby fully incorporated by reference. Fluorescein was used as the fluorescence probe due, in part, to its molecular size being roughly the same as that of DTPA[Gd(III)].
The focus of the study was to examine the possible retardation effects of gelatin concentration and cross-link density on the diffusion, which was determined at room temperature, i.e., below the gel point of gelatin. The diffusion of fluorescein probe slows down with the increase of gelatin concentration. The diffusion coefficient decreases from 1.5×10-10 to 9×10-12 m2s−1 when the concentration of gelatin increases from 9% to 40%. […] Accordingly, the probe diffusion is more likely controlled by the concentration of gelatin rather than the cross-link density. On the other hand, the cross-link density may determine the swelling ratio of gelatin, i.e., the concentration of gelatin in aqueous solution. […]

SMILES: O=C([O-])CN(CCN(CC(=O)[O-])CC(=O)O)CCN(CC(=O)[O-])CC(=O)O.[Gd+3] [DTPA[Gd(III)], gadolinium-diethylene triamine pentaacetic acid]
- Retention in the gelatin coating [1]: some fraction of DTPA[Gd(III)] remained in the gel

SMILES: O=C(O)CN(CCN(CC(=O)O)CC(=O)O)CCN(CC(=O)O)CC(=O)O [DTPA, diethylenetriaminepentaacetic acid]
- Time to diffuse out of the gelatin coating ([2]; coating thickness 60 μm, diffusion coefficient 9×10-12 m2s−1): about 67 seconds

SMILES: O=C1OC2(c3ccc(O)cc3Oc3cc(O)ccc32)c2ccccc21 [fluorescein]
- Fluorescence signal remaining in gelatin films ([2]; films soaked in water for 18 hours, including non-cross-linked films): still fluorescence signal
